Measurements as given in patent US12686788B2, “Coating compositions having covalently bound ultraviolet absorbers” (BASF SE, priority 2017, dated 2026).

Columns and labels:
Format in all cases: physicochemical
[1] = Percent transmission of clear coats on fused quartz plates (UV-vis); conditions: clear coat, 2.0 mils dry film on fused quartz; 2.5 weight percent UVA actives where present; with HALS 2
Method: Example 29. Percent Transmission Data of the Inventive Clear Coats—Clear coats were prepared of Instant Example 23 and were applied to fused quartz plates at a dry film thickness of 2.0 mils. The absorbance at various wavelengths was measured using a UV-vis spectrophotometer and the absorbance readings were converted to percent transmission (% T) at various wavelengths. In formulations where the UV absorber (UVA) was present, the concentration was 2.5 weight percent UVA actives relative to total resin solids

[2] = UV absorber solubility in UV curable coating composition (Example 8); conditions: approximate maximum concentration with no sign of crystallization; coating similar to Pourreau, RadTech Report 2004, Table 5
Method: Example 8. UV Absorber Solubility in UV Curable Coating Compositions. To measure this solubility, a number of structurally different UV absorbers were added to a typical UV curable coating composition similar to that as described by D. B. Pourreau “UV-Curable Acrylic Urethane Clearcoats for Automotive Applications,” RadTech Report, November/December, 2004, Table 5, p. 66. The test UV absorber was added to the UV curable coating composition at various concentrations. The resulting solution was placed into individual containers and sealed. Solubility was then evaluated based upon observed crystallization in the solvent. Observations started after several hours and then continued over a period of several weeks.
The solubility values given in Table 1, below, are approximate maximum concentrations where no sign of subsequent crystallization was evident. Solubilities are reported in weight percent of total UV absorber added to UV curable coating formulation. From the data in Table 1, it is clear that the inventive triazine UV absorbers are considerably more soluble in UV curable coating formulations than other triazine UV absorbers of the prior art. The use of many UV absorbers in coatings has been limited by solubility and compatibility of some UV absorber compounds. […]

[3] = Multilayered coated panels, accelerated weathering: color change (ΔE); conditions: after 6000 hours Xenon Arc accelerated weathering (SAE J2527); UV absorber 2.5 wt % in 2-part polyurethane clear top coat on white base coat
Method: (§1) Example 10. Stabilized 2-Part Solvent-borne Polyurethane Glossy Clear Top Coat. A glossy stabilized clear top coat was prepared of the formulation below. The UV absorbers were added to the formulation at 2.5 wt % relative to total resin solids.
(§2) Example 11. Stabilized 2-Part Solvent-borne Polyurethane Glossy Clear Top Coat. A glossy stabilized clear top coat was prepared of the formulation below. The UV absorber was added at 2.5 wt % relative to total resin solids, and the hindered amine light stabilizer (HALS) was added at 1.5 wt % relative to total resin solids. The HALS was a mixture of bis (1,2,2,6,6-pentamethyl-4-piperidyl) sebacate and methyl-1,2,2,6,6-pentamethyl-4-piperidyl sebacate (“HALS 1”); bis(1-octyloxy-2,2,6,6-tetramethylpiperidin-4-yl) sebacate (“HALS 2”); or 2,4-bis[(1-cyclohexyloxy-2,2,6,6-tetramethylpiperidin-4-yl)butylamino]-6-(2-hydroxyethylamino-s-triazine (“HALS 3”).
Example 12. Multilayered Coated Panel Preparation. Aluminum test panels from ACT Test Panels LLC were purchased having a white base coat (coil coat) and no clear top coat. The panels were cut to a size of about 3 inches by 6 inches. The stabilized top coats of Examples 10 and 11 were applied to the painted test panels using draw down bars to obtain clear coat thicknesses of either 2 mils or 3 mils, wherein 1 mil is equal to 0.0254 mm or 25.4 microns. The panels were allowed to air dry for 2 days followed by oven curing at 60° C. for 60 minutes. Initial CIE Lab color values, 20 degree gloss, and 60 degree gloss were measured.
Example 14. Multilayered Coated Panels, Accelerated Weathering. […]
Initial color measurements were taken using the above parameters. The L, a, and b values were calculated using the CIE system from the reflectance values. ΔE was calculated from the L, a, and b values. Subsequent measurements were taken at specified intervals. ΔL, a, and b values were the difference between the initial values and the values at each interval. ΔE was calculated as follows: [(ΔL)^2+(Δa)^2+(Δb)^2][…]=ΔE. […]

[4] = Multilayered coated panels, accelerated weathering: 20 degree gloss retention; conditions: after 3536 hours Xenon Arc accelerated weathering (SAE J2527); UV absorber 2.5 wt % in 2-part polyurethane clear top coat on white base coat
Method: as §1, §2
Example 12. Multilayered Coated Panel Preparation. Aluminum test panels from ACT Test Panels LLC were purchased having a white base coat (coil coat) and no clear top coat. The panels were cut to a size of about 3 inches by 6 inches. […] Initial CIE Lab color values, 20 degree gloss, and 60 degree gloss were measured. […]

[5] = UV absorber solubility in UV curable coating composition (Example 9); conditions: approximate maximum concentration with no sign of crystallization; coating similar to Pourreau, RadTech Report 2004, Table 6
Method: Example 9. UV Absorber Solubility in UV Curable Coating Compositions. To measure this solubility, a number of structurally different UV absorbers were added to a typical UV curable coating composition similar to that as described by D. B. Pourreau “UV-Curable Acrylic Urethane Clearcoats for Automotive Applications,” RadTech Report, November/December, 2004, Table 6, p. 68. The test UV absorber was added to the UV curable coating composition at various concentrations. The resulting solution was placed into individual containers and sealed. Solubility was then evaluated based upon observed crystallization in the solvent. Observations were initiated after several hours and continued over a period of several weeks.
The solubility values given in Table 2, below, are approximate maximum concentrations where no sign of subsequent crystallization is evident. Solubilities are reported in weight percent of total UV absorber added to UV curable coating formulation. From the data, it is clear that the instant triazine UV absorbers are considerably more soluble in UV curable coating formulations compared to other, triazine UV absorbers. The use of many UV absorbers in coatings has been limited in the past by the limited solubility and compatibility of some UV absorber compounds.

| Solubility in UV Curable Coating [2] [wt %] | Solubility in UV Curable Coating [5] [wt %] | Compound | % T at 325 nm [1] [%] | % T at 350 nm [1] [%] | % T at 375 nm [1] [%] | Delta E [3] | 20 degree gloss retention [4] [%] |
| --- | --- | --- | --- | --- | --- | --- | --- |
|  |  | CC(C)(C)CCCCCC(=O)OCC(COc1ccc(-c2nc(-c3ccc(-c4ccccc4)cc3)nc(-c3ccc(-c4ccccc4)cc3)n2)c(O)c1)OC(=O)NCCCCCCNC(=O)N(CCCCCCN=C=O)C(=O)NCCCCCCNC(=O)OC(COC(=O)CCCCCC(C)(C)C)COc1ccc(-c2nc(-c3ccc(-c4ccccc4)cc3)nc(-c3ccc(-c4ccccc4)cc3)n2)c(O)c1 (centres unmarked) [Example 17, [3-[4-[4,6-bis(4-phenylphenyl)-1,3,5-triazin-2-yl]-3-hydroxy-phenoxy]-2-[6-[[6-[[1-[[4-[4,6-bis(4-phenylphenyl)-1,3,5-triazin-2-yl]-3-hydroxy-phenoxy]methyl]-2-(neodecanoyl)oxy-ethoxy]carbonylamino]hexylcarbamoyl-(6-isocyanatohexyl)-carbamoyl]amino]hexylcarbamoyloxy]propyl] neodecanoate] | 0.02 | 0.09 | 25.29 |  |  |
|  |  | 2-[4,6-bis(2,4-dimethylphenyl)-1,3,5-triazin-2-yl]-5-[2-hydroxy-3-(2-methylbutoxy)propoxy]phenol and regioisomer [Example 3, reference compound] | 0.04 | 0.10 | 36.79 |  |  |
|  |  | CC(C)(C)CCCCCC(=O)OCC(COc1ccc(-c2nc(-c3ccc(-c4ccccc4)cc3)nc(-c3ccc(-c4ccccc4)cc3)n2)c(O)c1)OC(=O)NCCCCCCn1c(=O)n(CCCCCCN=C=O)c(=O)n(CCCCCCN=C=O)c1=O (centres unmarked) [Example 18, [2-[6-[3,5-bis(6-isocyanatohexyl)-2,4,6-trioxo-1,3,5-triazinan-1-yl]hexylcarbamoyloxy]-3-[4-[4,6-bis(4-phenylphenyl)-1,3,5-triazin-2-yl]-3-hydroxy-phenoxy]propyl] neodecanoate] | 0.02 | 0.13 | 31.98 |  |  |
| ~0 |  | CC(C)CCCC(C)OC(=O)C(C)Oc1ccc(-c2nc(-c3ccc(-c4ccccc4)cc3)nc(-c3ccc(-c4ccccc4)cc3)n2)c(O)c1 (centres unmarked) [Example 4, 2-Isooctyl 2-[4-[4,6-bis(4-phenylphenyl)-1,3,5-triazin-2-yl]-3-hydroxy-phenoxy]propanoate] |  |  |  | 3.78 | 78.8 |
|  |  | CCCCCC(CC)OC(=O)N(CCCCCCN=C=O)C(=O)NCCCCCCNC(=O)OC(COC(=O)CCCCCC(C)(C)C)COc1ccc(-c2nc(-c3ccc(-c4ccccc4)cc3)nc(-c3ccc(-c4ccccc4)cc3)n2)c(O)c1 (centres unmarked) [Example 19, [3-[4-[4,6-bis(4-phenylphenyl)-1,3,5-triazin-2-yl]-3-hydroxy-phenoxy]-2-[6-[[1-ethylhexoxycarbonyl(6-isocyanatohexyl)carbamoyl]amino]hexylcarbamoyloxy]propyl] neodecanoate] | 0.02 | 0.10 | 27.18 |  |  |
|  | ~2.4 | CCCCC(CC)COc1ccc(-c2nc(-c3ccc(-c4ccccc4)cc3)nc(-c3ccc(-c4ccccc4)cc3)n2)c(O)c1 (centres unmarked) [Example 5, 2-[4,6-Bis(4-phenylphenyl)-1,3,5-triazin-2-yl]-5-(2-ethylhexoxy)phenol, reference compound] |  |  |  | 2.79 |  |
| ~6.4 | ~26 | [3-[4-[4,6-bis(4-phenylphenyl)-1,3,5-triazin-2-yl]-3-hydroxy-phenoxy]-2-hydroxy-propyl] neo-decanoate (“UVA-3”) and [2-[4-[4,6-bis(4-phenylphenyl)-1,3,5-triazin-2-yl]-3-hydroxy-phenoxy]-3-hydroxy-propyl] neo-decanoate (“UVA-4”) [Example 2] |  |  |  | 1.89 |  |
|  |  | CCCCCCCCON1C(C)(C)CC(OC(=O)CCCCCCCCC(=O)OC2CC(C)(C)N(OCCCCCCCC)C(C)(C)C2)CC1(C)C [HALS 2, bis(1-octyloxy-2,2,6,6-tetramethylpiperidin-4-yl) sebacate, reference compound] | 84.39 | 92.31 | 93.38 |  |  |
|  |  | CC(C)(C)CCCCCC(=O)OCC(COc1ccc(-c2nc(-c3ccc(-c4ccccc4)cc3)nc(-c3ccc(-c4ccccc4)cc3)n2)c(O)c1)OC(=O)NCCCCCNC(=O)N(CCCCCCN=C=O)C(=O)NCCCCCCN=C=O (centres unmarked) [Example 16, [3-[4-[4,6-bis(4-phenylphenyl)-1,3,5-triazin-2-yl]-3-hydroxy-phenoxy]-2-[5-[[6-isocyanatohexyl(6-isocyanatohexylcarbamoyl)carbamoyl]amino]pentyl-carbamoyloxy]propyl] neodecanoate] | 0.03 | 0.11 | 33.86 |  |  |
